US12544395B2, “Combination compositions comprising a beta-lactamase inhibitor and uses thereof” (priority 2018, dated 2026)

What was measured:
[1] = system: E. coli SI-PBLII; test: Broth microdilution MIC (strain enzymes: CTX-M2, TEM-1); type: cell-based
[2] = system: E. coli SI-NO36; test: Broth microdilution MIC (strain enzymes: SHV-11, TEM-1); type: cell-based
[3] = system: three strains of E. coli expressing TEM-1+CTX-M-15, CTX-M-15, and KPC-2+SHV-12; test: MIC against the UTI test strains; type: cell-based; conditions: with Compound 2 at a fixed concentration of 4 μg/mL
[4] = system: E. coli 25922; test: Broth microdilution MIC (strain enzymes: None detected); type: cell-based
[5] = system: K. pneumoniae 153239; test: Broth microdilution MIC (strain enzymes: SHV-11, TEM-1); type: cell-based
[6] = system: E. coli ESBL 4; test: Broth microdilution MIC (strain enzymes: CTX-M15, TEM-1); type: cell-based
[7] = system: E. coli BAS 1; test: Broth microdilution MIC (strain enzymes: none detected); type: cell-based
[8] = system: E. coli expressing TEM-1+CTX-M-15, CTX-M-15, and KPC-2+SHV-12; test: Murine ascending UTI model, three strains; type: in vivo, mice; conditions: added to ceftibuten at 3, 10, 30, 100, and 300 mg/kg, SC every 12 hours for 3 days
[9] = system: K. oxytoca 496 #2; test: Broth microdilution MIC (strain enzymes: SHV-105, TEM-1); type: cell-based
[10] = system: E. coli 1924; test: Broth microdilution MIC (strain enzymes: TEM-12); type: cell-based
[11] = system: K. pneumoniae ESBL 8 #1; test: Broth microdilution MIC (strain enzymes: TEM-1, SHV-12); type: cell-based

## CCC(=O)N[C@H]1Cc2cccc(C(=O)O)c2OB1O [Compound 2, (R)-2-hydroxy-3-propionamido-3,4-dihydro-2H-benzo[e][1,2]oxaborinine-8-carboxylic acid]
[1]; with inhibitor at 1 μg/mL
  MIC of cefalexin (LEX): 0.25 mg/L
  MIC of cefdinir (CDR): 0.25 mg/L
  MIC of cefixime (CFM): 0.25 mg/L
  MIC of ceftibuten (CTB): 0.125 mg/L
[1]; with inhibitor at 2 μg/mL
  MIC of cefalexin (LEX): 0.25 mg/L
  MIC of cefdinir (CDR): 0.25 mg/L
  MIC of cefixime (CFM): 0.25 mg/L
  MIC of ceftibuten (CTB): 0.125 mg/L
[1]; with inhibitor at 4 μg/mL
  MIC of cefalexin (LEX): 0.25 mg/L
  MIC of cefdinir (CDR): 0.25 mg/L
  MIC of cefixime (CFM): 0.25 mg/L
  MIC of ceftibuten (CTB): 0.125 mg/L
[2]; with inhibitor at 1 μg/mL
  MIC of cefalexin (LEX): 0.125 mg/L
  MIC of cefdinir (CDR): 0.125 mg/L
  MIC of cefixime (CFM): 0.5 mg/L
  MIC of ceftibuten (CTB): 0.06 mg/L
[2]; with inhibitor at 2 μg/mL
  MIC of cefalexin (LEX): 0.125 mg/L
  MIC of cefdinir (CDR): 0.125 mg/L
  MIC of cefixime (CFM): 0.25 mg/L
  MIC of ceftibuten (CTB): 0.125 mg/L
[2]; with inhibitor at 4 μg/mL
  MIC of cefalexin (LEX): 0.25 mg/L
  MIC of cefdinir (CDR): 0.25 mg/L
  MIC of cefixime (CFM): 0.5 mg/L
  MIC of ceftibuten (CTB): 0.06 mg/L
[3]
  ceftibuten MICs: <0.06 to 0.12 µg/mL
[4]; with inhibitor at 1 μg/mL
  MIC of cefalexin (LEX): 0.125 mg/L
  MIC of cefdinir (CDR): 0.125 mg/L
  MIC of cefixime (CFM): 0.125 mg/L
  MIC of ceftibuten (CTB): 0.125 mg/L
[4]; with inhibitor at 2 μg/mL
  MIC of cefalexin (LEX): 0.125 mg/L
  MIC of cefdinir (CDR): 0.125 mg/L
  MIC of cefixime (CFM): 0.06 mg/L
  MIC of ceftibuten (CTB): 0.06 mg/L
[4]; with inhibitor at 4 μg/mL
  MIC of cefalexin (LEX): 0.125 mg/L
  MIC of cefdinir (CDR): 0.125 mg/L
  MIC of cefixime (CFM): 0.06 mg/L
  MIC of ceftibuten (CTB): 0.06 mg/L
[5]; with inhibitor at 1 μg/mL
  MIC of cefalexin (LEX): 0.5 mg/L
  MIC of cefdinir (CDR): 0.5 mg/L
  MIC of cefixime (CFM): 0.125 mg/L
  MIC of ceftibuten (CTB): 0.06 mg/L
[5]; with inhibitor at 2 μg/mL
  MIC of cefalexin (LEX): 0.25 mg/L
  MIC of cefdinir (CDR): 0.25 mg/L
  MIC of cefixime (CFM): 0.5 mg/L
  MIC of ceftibuten (CTB): 0.125 mg/L
[5]; with inhibitor at 4 μg/mL
  MIC of cefalexin (LEX): 0.25 mg/L
  MIC of cefdinir (CDR): 0.25 mg/L
  MIC of cefixime (CFM): 0.25 mg/L
  MIC of ceftibuten (CTB): 0.06 mg/L
[6]; with inhibitor at 1 μg/mL
  MIC of cefalexin (LEX): 2 mg/L
  MIC of cefdinir (CDR): 2 mg/L
  MIC of cefixime (CFM): 0.5 mg/L
  MIC of ceftibuten (CTB): 0.25 mg/L
[6]; with inhibitor at 2 μg/mL
  MIC of cefalexin (LEX): 1 mg/L
  MIC of cefdinir (CDR): 1 mg/L
  MIC of cefixime (CFM): 0.25 mg/L
  MIC of ceftibuten (CTB): 0.125 mg/L
[6]; with inhibitor at 4 μg/mL
  MIC of cefalexin (LEX): 0.5 mg/L
  MIC of cefdinir (CDR): 0.5 mg/L
  MIC of cefixime (CFM): 0.25 mg/L
  MIC of ceftibuten (CTB): 0.25 mg/L
[7]; with inhibitor at 1 μg/mL
  MIC of cefalexin (LEX): 1 mg/L
  MIC of cefdinir (CDR): 1 mg/L
  MIC of cefixime (CFM): 8 mg/L
  MIC of ceftibuten (CTB): 1 mg/L
[7]; with inhibitor at 2 μg/mL
  MIC of cefalexin (LEX): 1 mg/L
  MIC of cefdinir (CDR): 1 mg/L
  MIC of cefixime (CFM): 2 mg/L
  MIC of ceftibuten (CTB): 1 mg/L
[7]; with inhibitor at 4 μg/mL
  MIC of cefalexin (LEX): 2 mg/L
  MIC of cefdinir (CDR): 2 mg/L
  MIC of cefixime (CFM): 1 mg/L
  MIC of ceftibuten (CTB): 0.5 mg/L
[8]
  bacterial titers lower than ceftibuten alone, bladders: 3.2 log10 CFU/g
  bacterial titers lower than ceftibuten alone, urine: up to 4 log10 CFU/mL
[9]; with inhibitor at 1 μg/mL
  MIC of cefalexin (LEX): 0.25 mg/L
  MIC of cefdinir (CDR): 0.25 mg/L
  MIC of cefixime (CFM): 0.25 mg/L
  MIC of ceftibuten (CTB): 0.125 mg/L
[9]; with inhibitor at 2 μg/mL
  MIC of cefalexin (LEX): 0.25 mg/L
  MIC of cefdinir (CDR): 0.25 mg/L
  MIC of cefixime (CFM): 0.125 mg/L
  MIC of ceftibuten (CTB): 0.125 mg/L
[9]; with inhibitor at 4 μg/mL
  MIC of cefalexin (LEX): 0.06 mg/L
  MIC of cefdinir (CDR): 0.06 mg/L
  MIC of cefixime (CFM): 0.06 mg/L
  MIC of ceftibuten (CTB): 0.125 mg/L
[10]; with inhibitor at 1 μg/mL
  MIC of cefalexin (LEX): 0.5 mg/L
  MIC of cefdinir (CDR): 0.5 mg/L
  MIC of cefixime (CFM): 0.5 mg/L
  MIC of ceftibuten (CTB): 0.125 mg/L
[10]; with inhibitor at 2 μg/mL
  MIC of cefalexin (LEX): 0.25 mg/L
  MIC of cefdinir (CDR): 0.25 mg/L
  MIC of cefixime (CFM): 0.5 mg/L
  MIC of ceftibuten (CTB): 0.25 mg/L
[10]; with inhibitor at 4 μg/mL
  MIC of cefalexin (LEX): 0.25 mg/L
  MIC of cefdinir (CDR): 0.25 mg/L
  MIC of cefixime (CFM): 0.25 mg/L
  MIC of ceftibuten (CTB): 0.125 mg/L
[11]; with inhibitor at 1 μg/mL
  MIC of cefalexin (LEX): 0.25 mg/L
  MIC of cefdinir (CDR): 0.25 mg/L
  MIC of cefixime (CFM): 2 mg/L
  MIC of ceftibuten (CTB): 0.25 mg/L
[11]; with inhibitor at 2 μg/mL
  MIC of cefalexin (LEX): 0.125 mg/L
  MIC of cefdinir (CDR): 0.125 mg/L
  MIC of cefixime (CFM): 0.5 mg/L
  MIC of ceftibuten (CTB): 0.125 mg/L
[11]; with inhibitor at 4 μg/mL
  MIC of cefalexin (LEX): 0.25 mg/L
  MIC of cefdinir (CDR): 0.25 mg/L
  MIC of cefixime (CFM): 0.25 mg/L
  MIC of ceftibuten (CTB): 0.06 mg/L
